# According to patent publication US11376307B2, “Compositions and methods of treating cancer with glycomimetic peptides” (SUSAVION BIOSCIENCES, INC., priority 2018, dated 2022):
# Positions of bridges follow the written chain, without caps; N, C: chain ends. Chains are numbered I, II in the order given.
# Key:
# CLEC9A = target: T1, CLEC9A (Homo sapiens, UniProt Q6UXN8); experiment: Solid-phase binding assay, survey of other receptors
# T1 construct: The extracellular domains of receptors, which were fused with the Fc domain of immunoglobulin IgG; purchased R&D Systems
# Method: (§1) Binding Assays Solid-phase binding assays were performed with streptavidin-, protein A/G-, or Nickel-coated microtiter plates (Pierce). His-tagged or Fc-fusion recombinant receptors (R&D Systems, Minneapolis, Minn.) were reconstituted in PBS. Sufficient receptors were added to wells to saturate the coating. His-tagged receptors were added to each well at a 5-fold excess over the stated capacity of the Ni coating to minimize non-specific binding of the peptide. Wells were washed three times with binding buffer (25 mM Tris HCl, pH 7.4, 150 mM NaCl, 0.05% Tween-20) to remove unbound receptor and 50 μL of 2 μM biotinylated peptide in binding buffer were added and allowed to incubate for 1 h. The wells were washed four times with binding buffer and then incubated with 50 μL of 1 μg/mL streptavidin conjugated with peroxidase (Sigma-Aldrich) for 1 h. The wells were washed five times with binding buffer and 50 μL of peroxidase substrate (1-Step™ Ultra TMB, Pierce) were added. After several minutes to allow color development, the reaction was stopped with 50 μL 1 M H3PO4 and absorbance was measured at 450 nm. Bound streptavidin was quantitated by the specific activity of peroxidase (absorbance/ng protein conjugate/min) under the conditions of the assay.
# (§2) Solid-phase binding assays were performed with recombinant human receptors. Three variations of the binding assay were used in this study, all of which allowed the arms of the tetravalent peptide to have full flexibility. (i) Biotinylated peptide was bound in microtiter wells coated with streptavidin and incubated with recombinant human receptors. After extensive washing, the bound receptor was measured by peroxidase conjugated to a receptor-specific antibody. (ii) The extracellular domains of receptors, which were fused with the Fc domain of immunoglobulin IgG, were bound in wells coated with protein A/G. Biotinylated peptide was incubated with the receptors and, after extensive washing, bound peptide was measured with streptavidin conjugated with peroxidase. Or (iii), recombinant receptors with a poly-His tag were bound to Nickel-coated wells and incubated with biotinylated peptide. svL4 and sv6D contain His residues (FIGS. 1A, 1C) and can bind to the Ni coating, which was minimized by adding sufficient poly-His-tagged receptor to saturate the Ni coating.
# (§3) Of the receptors we have assayed thus far, the peptides bound to those specific for GalNAc, which included CLEC4F, a GalNAc-binding receptor expressed by Kupffer cells that is also homologous to ASGPR-1 [50].
# DC-SIGN = target: T2, DC-SIGN (Homo sapiens, UniProt Q9NNX6); experiment: as above
# T2 construct: The extracellular domains of receptors, which were fused with the Fc domain of immunoglobulin IgG; purchased R&D Systems
# T2 sequence (Q9NNX6 59-404 limits assumed): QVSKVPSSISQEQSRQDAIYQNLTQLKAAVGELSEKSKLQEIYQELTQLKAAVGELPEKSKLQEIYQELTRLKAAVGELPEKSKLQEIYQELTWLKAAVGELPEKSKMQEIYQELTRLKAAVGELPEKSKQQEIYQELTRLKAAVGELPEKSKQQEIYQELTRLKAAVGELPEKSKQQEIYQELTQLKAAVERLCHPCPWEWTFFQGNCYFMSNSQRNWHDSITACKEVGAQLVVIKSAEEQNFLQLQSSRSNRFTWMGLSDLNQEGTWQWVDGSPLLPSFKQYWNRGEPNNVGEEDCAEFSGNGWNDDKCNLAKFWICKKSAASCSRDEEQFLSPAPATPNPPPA
# Method: as §1, §2, §3
# Siglec-1 = target: T3, Siglec-1 (Homo sapiens, UniProt Q9BZZ2); experiment: as above
# T3 construct: The extracellular domains of receptors, which were fused with the Fc domain of immunoglobulin IgG; purchased R&D Systems
# Method: as §1, §2, §3
# IL-4R = target: T4, IL-4R (Homo sapiens, UniProt P24394); experiment: as above
# T4 construct: The extracellular domains of receptors, which were fused with the Fc domain of immunoglobulin IgG; purchased R&D Systems
# T4 sequence (P24394 26-232 limits assumed): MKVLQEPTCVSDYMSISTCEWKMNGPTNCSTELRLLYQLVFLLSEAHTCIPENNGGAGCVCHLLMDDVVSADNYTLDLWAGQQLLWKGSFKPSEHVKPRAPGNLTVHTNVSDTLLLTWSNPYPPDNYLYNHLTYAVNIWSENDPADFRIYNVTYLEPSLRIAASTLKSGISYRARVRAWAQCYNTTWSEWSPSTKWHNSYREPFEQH
# Method: as §1, §2, §3
# CD44 = target: T5, CD44 (Homo sapiens, UniProt P16070); experiment: as above
# T5 construct: The extracellular domains of receptors, which were fused with the Fc domain of immunoglobulin IgG; purchased R&D Systems
# Method: as §1, §2, §3
# CLEC4F = experiment: as above; design: species or system human
# Method: as §1, with “The wells were washed five times with binding buffer and 50 μL of peroxidase substrate (1-Step™ Ultra TMB, Pierce) were added.” left out
# Solid-phase binding assays were performed with recombinant human receptors. […] After extensive washing, the bound receptor was measured by peroxidase conjugated to a receptor-specific antibody. […]
# human ASGPR-1 = target: T6, human ASGPR-1 (Homo sapiens, UniProt P07306); experiment: Solid-phase binding assay with recombinant receptors; conditions: biotinylated tetravalent peptide
# T6 construct: The extracellular domains of receptors, which were fused with the Fc domain of immunoglobulin IgG; purchased R&D Systems
# T6 sequence (P07306 62-291 limits assumed): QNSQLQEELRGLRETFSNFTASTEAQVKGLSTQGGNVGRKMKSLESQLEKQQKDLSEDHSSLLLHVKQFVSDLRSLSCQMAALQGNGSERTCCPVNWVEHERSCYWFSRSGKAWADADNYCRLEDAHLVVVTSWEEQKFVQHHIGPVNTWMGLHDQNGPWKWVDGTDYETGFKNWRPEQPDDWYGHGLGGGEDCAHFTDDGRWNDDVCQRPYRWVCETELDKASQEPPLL
# Method: as §1, §2
# [1] = target: T7, recombinant human CLEC10A (Homo sapiens, UniProt Q8IUN9); experiment: as above; conditions: for Binding to CLEC10A: biotinylated tetravalent peptide
# T7 construct: The extracellular domains of receptors, which were fused with the Fc domain of immunoglobulin IgG; purchased R&D Systems
# T7 sequence (Q8IUN9 61-316 limits assumed): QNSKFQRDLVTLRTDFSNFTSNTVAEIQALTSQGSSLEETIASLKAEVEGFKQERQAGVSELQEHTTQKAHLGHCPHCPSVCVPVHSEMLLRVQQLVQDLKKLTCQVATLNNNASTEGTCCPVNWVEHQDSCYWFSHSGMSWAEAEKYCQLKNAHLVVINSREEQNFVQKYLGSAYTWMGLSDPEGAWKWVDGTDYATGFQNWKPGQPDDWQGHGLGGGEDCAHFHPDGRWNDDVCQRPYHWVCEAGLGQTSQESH
# Method: as §1, §2
# T3 sequence (Q9BZZ2 20-1641 limits assumed): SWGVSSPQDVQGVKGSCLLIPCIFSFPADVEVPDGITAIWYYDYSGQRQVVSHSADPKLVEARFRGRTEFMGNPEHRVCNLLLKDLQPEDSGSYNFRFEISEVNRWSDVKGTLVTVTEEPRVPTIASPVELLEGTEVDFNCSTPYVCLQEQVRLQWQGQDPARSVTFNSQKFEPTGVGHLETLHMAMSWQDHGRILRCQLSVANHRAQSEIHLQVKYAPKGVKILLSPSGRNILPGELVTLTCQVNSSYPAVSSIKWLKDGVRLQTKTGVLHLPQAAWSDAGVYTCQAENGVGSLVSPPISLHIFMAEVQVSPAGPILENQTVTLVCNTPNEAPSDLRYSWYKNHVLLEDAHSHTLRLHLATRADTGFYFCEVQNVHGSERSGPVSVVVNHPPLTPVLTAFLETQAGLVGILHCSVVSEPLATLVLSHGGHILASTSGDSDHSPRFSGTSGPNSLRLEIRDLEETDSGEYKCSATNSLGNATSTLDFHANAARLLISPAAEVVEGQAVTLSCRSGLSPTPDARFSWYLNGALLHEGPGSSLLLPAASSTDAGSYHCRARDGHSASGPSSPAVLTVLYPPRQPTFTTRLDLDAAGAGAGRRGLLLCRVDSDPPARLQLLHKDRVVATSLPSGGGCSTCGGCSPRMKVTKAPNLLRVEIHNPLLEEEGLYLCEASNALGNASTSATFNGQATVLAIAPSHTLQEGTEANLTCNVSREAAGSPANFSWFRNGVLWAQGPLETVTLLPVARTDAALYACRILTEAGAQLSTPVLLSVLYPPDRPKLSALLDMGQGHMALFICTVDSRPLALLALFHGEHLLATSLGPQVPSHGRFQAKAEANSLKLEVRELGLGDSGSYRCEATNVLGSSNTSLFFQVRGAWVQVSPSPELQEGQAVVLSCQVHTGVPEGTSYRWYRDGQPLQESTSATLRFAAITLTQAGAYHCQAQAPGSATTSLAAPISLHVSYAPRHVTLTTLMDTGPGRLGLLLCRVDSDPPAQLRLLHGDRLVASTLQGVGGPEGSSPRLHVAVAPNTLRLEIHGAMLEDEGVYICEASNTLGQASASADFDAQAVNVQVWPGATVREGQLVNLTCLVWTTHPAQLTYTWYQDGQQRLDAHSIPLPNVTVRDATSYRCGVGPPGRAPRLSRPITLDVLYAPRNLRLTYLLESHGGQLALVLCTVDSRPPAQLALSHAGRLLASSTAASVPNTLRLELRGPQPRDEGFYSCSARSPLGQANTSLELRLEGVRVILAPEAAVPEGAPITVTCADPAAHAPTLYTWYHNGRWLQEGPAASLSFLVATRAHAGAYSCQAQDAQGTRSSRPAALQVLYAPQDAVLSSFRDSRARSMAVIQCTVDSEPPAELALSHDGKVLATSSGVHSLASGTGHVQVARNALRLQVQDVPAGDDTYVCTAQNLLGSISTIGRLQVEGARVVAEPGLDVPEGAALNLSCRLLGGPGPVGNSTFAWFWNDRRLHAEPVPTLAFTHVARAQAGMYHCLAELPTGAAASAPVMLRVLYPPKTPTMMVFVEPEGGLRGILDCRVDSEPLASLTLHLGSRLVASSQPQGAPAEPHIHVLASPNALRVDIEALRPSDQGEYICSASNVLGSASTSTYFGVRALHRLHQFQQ
# T1 sequence (Q6UXN8 57-241 limits assumed): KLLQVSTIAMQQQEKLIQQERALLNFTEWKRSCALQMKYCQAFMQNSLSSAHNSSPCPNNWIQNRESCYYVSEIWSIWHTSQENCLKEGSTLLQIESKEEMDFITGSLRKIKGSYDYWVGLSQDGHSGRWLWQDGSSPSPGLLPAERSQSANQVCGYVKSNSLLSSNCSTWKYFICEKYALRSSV
# T5 sequence (P16070 21-220 limits assumed): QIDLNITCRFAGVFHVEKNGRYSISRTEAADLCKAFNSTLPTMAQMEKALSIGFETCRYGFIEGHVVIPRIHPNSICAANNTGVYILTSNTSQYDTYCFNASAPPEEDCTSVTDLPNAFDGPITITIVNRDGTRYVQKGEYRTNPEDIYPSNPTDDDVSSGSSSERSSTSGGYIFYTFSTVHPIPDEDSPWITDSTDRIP
Substance,Binding to CLEC9A (CLEC9A),Binding to DC-SIGN (DC-SIGN),Binding to Siglec-1 (Siglec-1),Binding to IL-4R (IL-4R),Binding to CD44 (CD44),Binding to CLEC4F (CLEC4F),Binding to ASGPR-1 (human ASGPR-1),Binding to CLEC10A [1],"Ca2+ dependence of binding ([1]; chelation of Ca2+ with low concentrations of EGTA, CLEC10A and ASGPR-1)"
"I: H-VQATQSNQHTPRGGGSKK-NH2 / II: H-VQATQSNQHTPRGGGSK / III: H-VQATQSNQHTPRGGGS / IV: H-VQATQSNQHTPRGGGS (amide I:17-IV:C, I:18-II:C, II:17-III:C) [svL4]",did not bind significantly,did not bind significantly,did not bind significantly,not detected,not detected,bound,bound,bound,
"I: H-NQHTPRGGGSKK-NH2 / II: H-NQHTPRGGGSK / III: H-NQHTPRGGGS / IV: H-NQHTPRGGGS (amide I:11-IV:C, I:12-II:C, II:11-III:C) [sv6D]",did not bind significantly,did not bind significantly,did not bind significantly,not detected,not detected,bound,bound as strongly as the full-length sequence,bound as strongly as the full-length sequence,requires Ca^2+
